Measured values published in ChEMBL document CHEMBL3779866, “Synthetic approaches, structure activity relationship and biological applications for pharmacologically attractive pyrazole/pyrazoline-thiazolidine-based hybrids” (Eur J Med Chem, 2016).
Values after ≈ are worked out from the molar mass of the structure shown. Blank lines part the entries; values can stand above or below the compound they belong to.

How the values were obtained:
[1] = test system: Aspergillus fumigatus; test: Antimicrobial activity against Aspergillus fumigatus HIC6094 by serial two-fold broth dilution method; type: functional
[2] = test system: Trichophyton mentagrophytes; test: Antimicrobial activity against Trichophyton mentagrophytes IFO40996 by serial two-fold broth dilution method; type: functional
[3] = test system: Trichophyton rubrum; test: Antimicrobial activity against Trichophyton rubrum IFO9185 by serial two-fold broth dilution method; type: functional
[4] = test system: Candida albicans; test: Antimicrobial activity against Candida albicans ATCC 10231 by serial two-fold broth dilution method; type: functional
[5] = Cytotoxicity against human HOP92 cells assessed as growth inhibition after 48 hrs by SRB assay; type: functional; conditions: HOP-92, 48 h
[6] = test system: CCRF-CEM; test: Cytotoxicity against human CCRF-CEM cells assessed as growth inhibition after 48 hrs by SRB assay; type: functional
[7] = test system: EKVX; test: Cytotoxicity against human EKVX cells assessed as growth inhibition after 48 hrs by SRB assay; type: functional
[8] = Cytotoxicity against human RPMI8226 cells assessed as growth inhibition after 48 hrs by SRB assay; type: functional; conditions: RPMI-8226, 48 h
[9] = test system: NCI-H522; test: Cytotoxicity against human NCI-H522 cells assessed as growth inhibition after 48 hrs by SRB assay; type: functional; conditions: NCI-H522, 48 h
[10] = test system: HeLa; test: Cytotoxicity against human HeLa cells assessed as growth inhibition after 48 hrs by SRB assay; type: functional
[11] = test system: Rattus norvegicus; test: Antiinflammatory activity against albino rat assessed as inhibition of carrageenin induced paw edema at 100 mg/kg, po administered for 1 hr followed by carrageenin challenge measured after 4 hrs; type: functional
[12] = test system: Escherichia coli; test: Antimicrobial activity against Escherichia coli after 24 hrs by serial dilution method; type: functional
[13] = test system: HepG2; test: Cytotoxicity against human HepG2 cells assessed as growth inhibition after 48 hrs by SRB assay; type: functional; conditions: HepG2, 48 h
[14] = test system: Escherichia coli; test: Antibacterial activity against Escherichia coli ATCC 25922 after 24 to 48 hrs by two-fold microdilution susceptibility assay; type: functional
[15] = test system: Pseudomonas aeruginosa; test: Antimicrobial activity against Pseudomonas aeruginosa MTCC 741 after 24 hrs by serial two-fold broth dilution method; type: functional; conditions: MTCC 741, 24 h
[16] = test system: Lysinibacillus sphaericus; test: Antimicrobial activity against Bacillus sphaericus MTCC 11 after 24 hrs by serial two-fold broth dilution method; type: functional; conditions: MTCC 11, 24 h
[17] = test system: Staphylococcus aureus; test: Antimicrobial activity against Staphylococcus aureus MTCC 96 after 24 hrs by serial two-fold broth dilution method; type: functional; conditions: MTCC 96, 24 h
[18] = test system: Chromobacterium violaceum; test: Antimicrobial activity against Chromobacterium violaceum MTCC 2625 after 24 hrs by serial two-fold broth dilution method; type: functional; conditions: MTCC 2625, 24 h
[19] = test system: Klebsiella aerogenes; test: Antimicrobial activity against Klebsiella aerogenes MTCC 39 after 24 hrs by serial two-fold broth dilution method; type: functional; conditions: MTCC 39, 24 h
[20] = test system: Bacillus subtilis; test: Antimicrobial activity against Bacillus subtilis MTCC 441 after 24 hrs by serial two-fold broth dilution method; type: functional; conditions: MTCC 441, 24 h
[21] = test system: Leishmania donovani; test: Antiparasitic activity against Leishmania donovani by cell based assay; type: functional, organism-based
[22] = test system: Plasmodium falciparum; test: Antiparasitic activity against Plasmodium falciparum by cell based assay; type: functional, organism-based
[23] = test system: Candida albicans; test: Antifungal activity against Candida albicans after 24 to 48 hrs by two-fold microdilution susceptibility assay; type: functional

Structure (SMILES): O=C1NC(=S)S/C1=C\c1cn(-c2ccccc2)nc1-c1ccccc1
GI50 [5]: 620 nM
CC50 ([5]; read-out: LC50 (the source's name)): > 100000 nM
GI50 [6]: 2500 nM
GI50 [7]: 3030 nM
GI50 [8]: 2520 nM
GI50 [9]: 2960 nM

Structure (SMILES): Cc1ccc(N2C(=O)CSC2c2cn(-c3ccccc3)nc2-c2cc3ccccc3o2)cc1 (centres undefined)
GI50 [10]: 1.2 µg/mL (≈ 2.66 µM)

Structure (SMILES): CC(C(=O)O)c1cccc(C(=O)c2ccccc2)c1 (centres undefined) [KETOPROFEN]
inhibition in vivo at 100 mg/kg [11]: 63%

Structure (SMILES): C(=N\Nc1nc(-c2ccc3c(c2)CCCC3)cs1)/c1cn(-c2ccccc2)nc1-c1cc2ccccc2o1
GI50 [13]: 5 µg/mL (≈ 9.7 µM)

Structure (SMILES): CC1(C)S[C@@H]2[C@H](NC(=O)Cc3ccccc3)C(=O)N2[C@H]1C(=O)O [PENICILLIN G]
MIC [15]: 1.56 µg/mL (≈ 4.67 µM)
MIC [16]: 1.56 µg/mL (≈ 4.67 µM)
MIC [17]: 1.56 µg/mL (≈ 4.67 µM)
MIC [18]: 1.56 µg/mL (≈ 4.67 µM)
MIC [19]: 1.56 µg/mL (≈ 4.67 µM)
MIC [20]: 1.56 µg/mL (≈ 4.67 µM)

Structure (SMILES): CC1=NN(C2=NC(=O)CS2)C(c2ccccc2)C1 (centres undefined)
IC50 [21]: > 30 µg/mL
IC50 [22]: > 5 µg/mL

The remaining lines, values ahead:

MIC [1]: 14 µg/mL (≈ 26.5 µM)
MIC [2]: 14 µg/mL (≈ 26.5 µM)
MIC [3]: 14 µg/mL (≈ 26.5 µM)
MIC [4]: 14 µg/mL (≈ 26.5 µM)
Structure (SMILES): Cc1nn(-c2ccccc2)c(C)c1-c1cc(-c2ccc(Cl)cc2)nc(N2C(=O)CSC2c2ccco2)n1 (centres undefined)

MIC [12]: 39 µg/mL (≈ 87.8 µM)
Structure (SMILES): CN(C)[C@@H]1C(O)=C(C(N)=O)C(=O)[C@@]2(O)C(O)=C3C(=O)c4c(O)cccc4[C@@](C)(O)[C@H]3C[C@@H]12 [TETRACYCLINE]

MIC [12]: 143 µg/mL (≈ 185 µM)
Structure (SMILES): CC(=O)OC[C@@H]1O[C@@H](N2C(=O)/C(=C/c3cn(-c4ccccc4)nc3-c3ccc(Br)cc3)SC2=S)[C@@H](OC(C)=O)[C@H](OC(C)=O)[C@@H]1OC(C)=O

MIC [14]: 25 µg/mL (≈ 46.6 µM)
Structure (SMILES): Cc1ccc(N2C(=O)CS/C2=N/N=C\c2cn(-c3ccccc3)nc2-c2ccc(Br)s2)cc1

MIC [23]: 12.5 µg/mL (≈ 22.4 µM)
Structure (SMILES): O=C1CS/C(=N/N=C\c2cn(-c3ccccc3)nc2-c2ccc(Br)s2)N1c1ccc(Cl)cc1

MIC [1]: 14 µg/mL (≈ 24.1 µM)
MIC [2]: 14 µg/mL (≈ 24.1 µM)
MIC [3]: 14 µg/mL (≈ 24.1 µM)
MIC [4]: 14 µg/mL (≈ 24.1 µM)
Structure (SMILES): Cc1nn(-c2ccccc2)c(C)c1-c1cc(-c2ccc(Cl)cc2)nc(N2C(=O)CSC2c2ccc(N(C)C)cc2)n1 (centres undefined)
